Assay results: patent US20230312601A1, “THIAZOLO[5,4-B]PYRIDINE MALT-1 INHIBITORS” (AbbVie Inc., priority 2022, published 2023)

Tests used:
[1] = biological target: human MALT-1 protein (Homo sapiens (Human), UniProt Q9UDY8); assay: MALT-1 Biochemical Assay (Quench-FRET enzyme assay); settings: human MALT-1 6 nM, substrate 2 μM, 40 min preincubation
Text: A Quenched Fluorescence Resonance Energy Transfer (Quench-FRET) enzyme assay was used to test the ability of exemplary MALT-1 inhibitors Example 1 to Example 39 to inhibit the cleavage of a MALT1 specific quenched fluorescent substrate of sequence [TAMRA-PEG2-Leu-Val-Ser-Arg-Gly-Ala-Ala-Ser-PEG2-K(QSY7) by human MALT-1 protein; where TAMRA is 6-carboxytetramethylrhodamine, PEG2 is 2-(2-(2-aminoethoxy)ethoxyamide linker, QSY7 is a non-fluorescent quenching dye (Thermo-Fisher catalog #Q10193). The assay was performed by pre-dispensing compounds into 384 well Proxiplates™ (PE 6008289). Human MALT-1 (6 nM) was prepared using the assay buffer (25 mM HEPES pH 7.5, 1 mM ethylenediaminetetraacetic acid, 0.8 M sodium citrate, 0.005% Bovine serum albumin (BSA), 2 mM dithiothreitol (DTT)) and added to the compound plates. The plates were incubated 40 minutes at room temperature. The reaction was carried out by adding the substrate (2 μM) to the plates and incubating for 60 minutes at room temperature. A fluorescence readout was then measured using a PE EnVision® reader (Ex.535/Em.590). […] EC50 is defined as the half maximal effective concentration of compound to inhibit MALT-1 protease activity.

[2] = system: CYP3A4 mRNA; assay: CYP3A4 Induction Assay (qPCR, human hepatocytes); type: in vitro ADME; settings: cryopreserved human hepatocytes (plated), 10 μM compound, mRNA fold over vehicle (0.1% DMSO)
Description: (§1) CYP induction by compounds of the Examples was evaluated in vitro by determining the expression levels of CYP 3A4 mRNA using the qPCR (quantitative polymerase chain reaction) assay. On day one, cryopreserved human hepatocytes were thawed in prewarmed (37° C.) thawing medium (cryopreserved hepatocyte recovery medium, Gibco™ CM 7000; Thermo Fisher Scientific), centrifuged (1000 g for 10 minutes) and resuspended in plating medium (Gibco™ CM3000—Williams Medium E supplemented with hepatocytes plating supplement pak-serum containing; Thermo Fisher Scientific). Cells were counted by trypan blue exclusion using a hemocytometer and adjusted to a cell density of […]. Thereafter, […] of cell suspension was aliquoted per well in a 96-well plate, resulting in 60,000 cells/well. Plates were shaken in the north-south and east-west direction during plating. Plated cells were incubated at 37° C/5% CO2 in a humidified cell culture incubator for 4-6 hours. During this time, incubation medium (Gibco™ CM4000, cell maintenance supplement pack; Thermo Fisher Scientific) was mixed with Gibco™ Geltrex™ (Thermo Fischer Scientific) at the appropriate GeltrexTM protein concentration. Following recovery, medium was removed from cells and replaced with freshly prepared incubation medium. Cells were incubated overnight in a cell culture incubator (37° C./5% CO2).
(§2) The next day the incubation medium was prepared by combining the hepatocyte maintenance supplement pack with Williams Medium E. The medium was warmed to 37° C. 1000× dimethyl sulfoxide compound stocks of the compounds of the Examples were prepared to the desired concentrations. 10 mM compound stocks in dimethyl sulfoxide were diluted (1 μL to 1 mL CM4000; final concentration=10 μM). Overlay medium was aspirated and […] dose solution added to the desired labeled 96 well plate. Cells were then dosed with compound (10 μM) and prototypical induces at the targeted concentrations either 50 i.tM for omeprazole (Sigma 0104/lotBCBF-2161V) or 10 i.tM for rifampicin (Sigma R3501/lot 011M1159V). A negative control, probenecid, was dosed at 10 i.tM (Sigma P8761/lot 013K0148).
(§3) On day 3, RNA isolation was performed. All surfaces were cleaned using RNase RNAy. Total RNA was isolated using MagMAX Express 96 RNA Isolation System (Life Technologies, AM1830). Briefly, hepatocytes were washed once with 1X PBS (phosphate buffered saline). 145 μL of RNA Lysis Buffer was added to each well and each well was mixed by pipetting several times. Lysate was then transferred to a well of a 96 well Binding Plate. Samples were then mixed with 20 μL magnetic beads coming from the kit. RNA bound to beads was then captured by the magnetic tip manifold and beads were washed with the wash solution. Samples were treated with TURBOTmDNase. After TURBOTmDNase treatment, RNA was rebound to beads and washed with the provided wash buffer an additional two times. Beads are then dried, and RNA was eluted with 50 μL elution buffer. The eluted mRNA was transferred from the wells to RNase-free sealable microtiter plates and stored at -80° C. until use.
(§4) Following mRNA isolation, reverse transcription (RT) reactions were performed using TaqmanTm Reverse Transcription Reagents (ThermoFisher Scientific). RT master mix was prepared by mixing 2.5 μL 10× RT buffer, 5.5 μL 25 mM MgCl2, 5μL deoxyNTP mixture, 1.25 50 mM random hexamers, 0.5 μL 2× RNAse inhibitor, 0.625 μL multiscript RTase (50U/μL) and 0.625 μL water. An aliquot of RT mix (16 μL) and an aliquot of mRNA sample (9 μL) was added to each well of a 96-well plate. The SimpliAmpTM Thermal cycler PCR System VIIA7 from Applied Biosystems was used for reverse transcription under the following conditions: segment 1: 25° C. for 10 minutes; segment 2: 45° C. for 45 minutes; segment 3: 95° C. for 5 minutes; and segment 4: 4° C. hold; with 1 cycle for each segment. […]

[3] = system: CYP 3A4 mRNA; assay: CYP3A4 Induction Assay (qPCR, human hepatocytes); type: in vitro ADME; settings: 10 μM compound; for CYP3A4 % of positive control (%): relative to rifampicin 10 μM
Description: as §1, §2, §3, §4

[4] = system: OCI-LY3 IL6; assay: MALT-1 Cell IL-6 AlphaLISA Assay; type: cell-based; settings: Homo sapiens; OCI-LY3 cells, 48 hours incubation; read-out: OCI-LY3 IL6 48 hour Inhibition EC50
Description: The following MALT-1 Cell Interleukin-6 (IL-6) AlphaLISA assay was conducted using a Perkin Elmer® IL-6 AlphaLISA® detection kit (PE AL223). The IL-6 detection assay is a homogeneous immunoassay that detects human IL-6 present in the cell culture medium in the MALT-1 dependent human ABC-DLBCL cell line, OCI-LY3. Compounds were pre-dispensed into Black 384w microtiter plates (Greiner, 781090) from 30 μM to 1.5 nM. Viable OCI-LY3 cells were then seeded on top of compounds at a seeding density of 50,000 cells/mL. Plates were then placed into 37° C. incubators for 48 hours. After 48 hours incubation, 2 μL of cell medium from each well was transferred into white ProxiPlates™ (PE 6008289). A fresh mix of AlphaLISA Acceptor beads (10 μg/mL) and Biotinylated IL-6 Antibody (1 nM) was made in AlphaLISA Immunoassay buffer and added to all wells (4 μL). The plates were incubated for 60 minutes at room temperature. Streptavidin donor beads (40 μg/mL) were prepared using the assay buffer and added to all wells (5 The plates were incubated for 30 minutes at room temperature and read using PE EnVision® reader. Results are shown in Table 3.

[5] = system: male Sprague-Dawley rats; assay: Cardiovascular Assay in anesthetized rats; type: in vivo; settings: rat; for HR (%) / MAP (%) / dP/dt@50 (%): change from vehicle; for Drug (μg/mL SEM): plasma at end of infusion
Description: The following cardiovascular assay was conducted using male Sprague-Dawley rats that were anesthetized with Inactin (thiobutabarbital), instrumented (catheterized both femoral artery and vein; catheterize left ventricular) and allowed to stabilize. Following a 30-minute baseline period, each compound was infused at low, medium, and high doses/30 minutes. Plasma samples were taken at the end of each dose infusion. If, at any point, the mean arterial pressure (MAP) of an animal decreased below 70 mmHg, the infusion was immediately stopped, a final blood sample was taken, and hemodynamic data for that animal was removed from the group average for all subsequent time points. A 15% change from vehicle for MAP or heart rate (HR), respectively, is considered biologically relevant. A 20% change from vehicle for dP/dt@50 is considered biologically relevant.

Sequence of human MALT-1 protein (Q9UDY8 whole entry): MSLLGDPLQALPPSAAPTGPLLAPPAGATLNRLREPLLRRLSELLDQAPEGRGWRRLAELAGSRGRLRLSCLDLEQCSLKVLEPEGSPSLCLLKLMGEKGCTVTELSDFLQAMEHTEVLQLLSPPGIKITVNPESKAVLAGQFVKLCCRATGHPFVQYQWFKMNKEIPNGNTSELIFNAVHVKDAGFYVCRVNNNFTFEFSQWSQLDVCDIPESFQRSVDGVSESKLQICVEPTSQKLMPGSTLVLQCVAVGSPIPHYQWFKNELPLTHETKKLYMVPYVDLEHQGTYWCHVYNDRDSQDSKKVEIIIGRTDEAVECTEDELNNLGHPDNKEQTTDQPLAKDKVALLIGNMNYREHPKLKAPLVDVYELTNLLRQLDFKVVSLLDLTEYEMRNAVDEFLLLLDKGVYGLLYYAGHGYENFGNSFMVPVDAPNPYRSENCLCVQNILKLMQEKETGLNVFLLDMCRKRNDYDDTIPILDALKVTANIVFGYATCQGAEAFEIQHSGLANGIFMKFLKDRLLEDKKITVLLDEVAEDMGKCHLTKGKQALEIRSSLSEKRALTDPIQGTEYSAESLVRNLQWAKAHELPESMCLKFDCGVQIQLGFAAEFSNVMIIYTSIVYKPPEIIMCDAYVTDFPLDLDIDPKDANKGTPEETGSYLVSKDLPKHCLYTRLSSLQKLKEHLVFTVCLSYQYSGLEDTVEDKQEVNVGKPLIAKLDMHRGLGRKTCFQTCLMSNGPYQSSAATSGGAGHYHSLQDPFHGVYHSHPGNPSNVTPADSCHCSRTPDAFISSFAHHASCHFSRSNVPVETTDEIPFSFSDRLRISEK

SMILES	EC50 [1]	fold induction at 1 day, 10 µM [2]	CYP3A4 % of positive control (%) [3]	EC50 [4]	further results
CO[C@@H](C)c1c(Nc2ccc([C@H](N(C)C(=O)C3CCS(=O)(=O)CC3)C(F)(F)F)cc2)cnc2sc(C(F)F)nc12 [Example 15, N-{(1 5)-1-[4-({2-(difluoromethyl)-7-[(1S)-1-methoxyethyl][1,3]thiazolo[5,4-b]pyridin-6-yl}amino)phenyl]-2,2,2-trifluoroethyl}-N-methyl-1,1-dioxo-1λ^6-thiane-4-carboxamide]	103 nM	0.413	(−4.74) %	300 nM	
CO[C@@H](C)c1c(Nc2ccc([C@H](N(C)C(=O)C3CCN(C(=O)CCO)CC3)C(F)(F)F)cc2)cnc2sc(C)nc12 [Example 22, 1-(3-hydroxypropanoyl)-N-methyl-N-{(1S)-2,2,2-trifluoro-1-[4-({7-[(1S)-1-methoxyethyl]-2-methyl[1,3]thiazolo[5,4-b]pyridin-6-yl}amino)phenyl]ethyl}piperidine-4-carboxamide]	228 nM	1.09	(1.16) %	380 nM	
CO[C@@H](c1c(Nc2ccc([C@H](N(C)C(=O)C3CCS(=O)(=O)CC3)C(F)(F)F)cc2)cnc2sc(C)nc12)C(F)F [Example 5, N-{(1S)-1-[4-({7-[(1S)-2,2-difluoro-l-methoxyethyl]-2-methyl[1,3]thiazolo [5,4-b]pyridin-6-yl}amino)phenyl]-2,2,2-trifluoroethyl}-N-methyl-1,1-dioxo-1λ^6-thiane-4-carboxamide]	77 nM	1.77	(15.3) %	340 nM	
CO[C@@H](C)c1c(Nc2ccc([C@H](N(C)C(=O)C3CCN(C(=O)C(O)CO)CC3)C(F)(F)F)cc2)cnc2sc(C)nc12 (stereo partly drawn) [Example 24, 1-(2,3-dihydroxypropanoyl)-N-methyl-N-{(1S)-2,2,2-trifluoro-1-[4-({7-[(1S)-1-methoxyethyl]-2-methyl[1,3]thiazolo[5,4-b]pyridin-6-yl}amino)phenyl]ethyl}piperidine-4-carboxamide]	979 nM	1.49	(7.62) %	12200 nM	
CO[C@H](c1c(Nc2ccc([C@@H](C(F)F)N(C)C(=O)C3CCN(C(=O)CO)CC3)cc2)cnc2sc(C)nc12)C(F)F [Example 31, N-{(1S)-1-[4-({7-[(1R)-2,2-difluoro-1-methoxyethyl]-2-methyl[1,3]thiazolo[5,4-b]pyridin-6-yl}amino)phenyl]-2,2-difluoroethyl}-1-(hydroxyacetyl)-N-methylpiperidine-4-carboxamide]	82 nM	1.37	(4.87) %	440 nM	
CO[C@@H](C)c1c(Nc2ccc([C@H](N(C)C(=O)C3CCS(=O)(=O)CC3)C(F)(F)F)cc2)cnc2cc(Cl)nn12 [Comparative Example A, N-{(1S)-1-[4-({2-chloro-7-[(1 S)-1-methoxyethyl]pyrazolo [1,5-a]pyrimidin-6-yl}amino)phenyl]-2,2,2-trifluoroethyl}-N-methyl-1,1-dioxo-1λ^6-thiane-4-carboxamide, reference compound]					HR (%) ([5]; dose 3 mg/kg): −7%; MAP (%) ([5]; dose 3 mg/kg): −10%; dP/dt@50 (%) ([5]; dose 3 mg/kg): −4%; HR (%) ([5]; dose 10 mg/kg): −11%; MAP (%) ([5]; dose 10 mg/kg): −14%; dP/dt@50 (%) ([5]; dose 10 mg/kg): −7%; HR (%) ([5]; dose 30 mg/kg): −18%; MAP (%) ([5]; dose 30 mg/kg): −22%; dP/dt@50 (%) ([5]; dose 30 mg/kg): −6%; Drug (μg/mL SEM) ([5]; dose 3 mg/kg): 1.45 ± 0.06 µg/mL; Drug (μg/mL SEM) ([5]; dose 10 mg/kg): 5.15 ± 0.32 µg/mL; Drug (μg/mL SEM) ([5]; dose 30 mg/kg): 12.91 ± 1.71 µg/mL
CO[C@@H](C)c1c(NC(=O)Nc2cnc(-n3nccn3)c(C(F)(F)F)c2)cnc2sc(C)nc12 [Comparative Example B, reference compound]			(25.3) %		CYP3A4 Fold induction ([3]; mRNA fold over vehicle (0.1% DMSO)): 2.32
CO[C@H](c1c(Nc2ccc([C@H](N(C)C(=O)C3CCS(=O)(=O)CC3)C(F)(F)F)cc2F)cnc2sc(C)nc12)C(F)F (single isomer, unassigned) [Example 17]	92 nM			580 nM	
Cc1nc2c(C(C)C(F)F)c(Nc3ccc([C@H](N(C)C(=O)C4CCS(=O)(=O)CC4)C(F)(F)F)cc3)cnc2s1 (stereo partly drawn) [Example 16, N-R[(1S)-1-(4-{ [7-(1,1-difluoropropan-2-yl)-2-methyl[1,3]thiazolo[5,4-b]pyridin-6-yl]amino}phenyl)-2,2,2-trifluoroethyl]-N-methyl-1,1-dioxo-1λ^6-thiane-4-carboxamide]	106 nM			470 nM	
